{
  "source": "patent US6696456B1",
  "about": "“Beta disubstituted metalloprotease inhibitors” (The Procter & Gamble Company, priority 1999, dated 2004)",
  "key": {"[1]": {"system": "human subject suffering from rheumatoid arthritis", "test": "Example A: oral tablet treatment of a subject with rheumatoid arthritis", "format": "in vivo", "conditions": "tablet with 15 mg compound, three tablets per day orally for 2 years, 60 kg human", "experimental": "A tablet composition for oral administration, according to the present invention, is made comprising:\nA human subject weighing 60 kg (132 lbs), suffering from rheumatoid arthritis, is treated by a method of this invention. Specifically, for 2 years, a regimen of three tablets per day is administered orally to said subject."}, "[2]": {"system": "human subject suffering from osteoarthritis", "test": "Example B: oral capsule treatment of a subject with osteoarthritis", "format": "in vivo", "conditions": "capsule with 70 mg compound daily for 5 years, 90 kg human", "experimental": "A capsule for oral administration, according to the present invention, is made comprising:\nA human subject weighing 90 kg (198 lbs.), suffering from osteoarthritis, is treated by a method of this invention. Specifically, for 5 years, the above capsule, which contains 70 mg of the compound of Example 4, is administered daily to said subject."}},
  "data": [
    {"molecule": "COc1ccc(-c2ccc(S(=O)(=O)N[C@@H](C(=O)O)[C@H](OCc3ccc(C)cc3)c3nccs3)cc2)cc1", "note": "[Example 1, (2R,3S)-2-(4′ -Methoxy-biphenyl-4-sulfonylamino)-3-(4-methyl-benzyloxy)-3-thiazol-2-yl-propionic Acid]", "values": [
      {"measurement": "inflammation, mobility and pain at the end of the treatment period", "setting": "[1]", "result": "reduced inflammation and improved mobility without concomitant pain"}
    ]},
    {"molecule": "CCS[C@H](c1ccccc1)[C@@H](NS(=O)(=O)c1ccc(-c2ccc(F)cc2)cc1)C(=O)O", "note": "[Example 4, (2S,3R)-3-Ethylsulfanyl-2-(4′-fluoro-biphenyl-4-sulfonylamino)-3-phenyl-propionic Acid]", "values": [
      {"measurement": "erosion/fibrillation of the articular cartilage via x-ray, arthroscopy and/or MRI", "setting": "[2]", "result": "no further advancement of erosion/fibrillation of the articular cartilage"}
    ]}
  ]
}
